Assay results: the NIST ThermoML archive (doi:10.1021/je301294a)
Numbers after ± are expanded uncertainties.

Conditions: Liquid, Closed cell (Static) method

Row | Structure (SMILES) | vapor or sublimation pressure (373.15 K) [kPa] | vapor or sublimation pressure (383.15 K) [kPa] | vapor or sublimation pressure (393.15 K) [kPa] | vapor or sublimation pressure (403.15 K) [kPa] | vapor or sublimation pressure (413.15 K) [kPa] | vapor or sublimation pressure (423.15 K) [kPa] | vapor or sublimation pressure (433.15 K) [kPa] | vapor or sublimation pressure (443.15 K) [kPa] | vapor or sublimation pressure (453.15 K) [kPa]
1 | CCCCCCCCCC(=O)OCC [ethyl decanoate] | 0.5827 ± 0.036 | 0.9771 ± 0.025 | 1.586 ± 0.021 | 2.498 ± 0.027 | 3.829 ± 0.035 | 5.726 ± 0.048 | 8.371 ± 0.066 | 11.99 ± 0.091 | 16.84 ± 0.12
2 | CCCCCC(=O)OCC [ethyl hexanoate] | 11.35 ± 0.24 | 16.69 ± 0.14 | 23.94 ± 0.19 | 33.59 ± 0.27 | 46.18 ± 0.37 | 62.32 ± 0.49 | 82.69 ± 0.65 | 108.02 ± 0.85 | 139.11 ± 1.1
3 | CCCCCCCCCCCCCC(=O)OCC [ethyl tetradecanoate] | 0.0326 ± 0.0025 | 0.0623 ± 0.0044 | 0.1143 ± 0.0078 | 0.2019 ± 0.013 | 0.3448 ± 0.022 | 0.5712 ± 0.036 | 0.9198 ± 0.024 | 1.443 ± 0.021 | 2.211 ± 0.025
4 | CCCCCCCCCCCCCC [tetradecane] | 0.444 ± 0.028 | 0.7516 ± 0.02 | 1.23 ± 0.031 | 1.954 ± 0.044 | 3.017 ± 0.065 | 4.543 ± 0.096 | 6.684 ± 0.14 | 9.627 ± 0.2 | 13.6 ± 0.1
